From PMC11992225, “Antibacterial compounds against non-growing and intracellular bacteria” (npj Antimicrobials and Resistance, 2025)
In brackets after ≈: the same amount, converted by molar mass. Several values for one entry are separate records, joined by “and”; a condition that tells them apart may be missing. Equal values may be shown once. Read-outs that look alike come from different tables or passages of the source.

Key:
[1] = tested on: P. aeruginosa DSM1117; assay: MIC, standard microdilution assay, growing P. aeruginosa; type: cell-based, Pseudomonas aeruginosa; conditions: P. aeruginosa; for MIC: Pseudomonas aeruginosa, DSM1117
Summary of the method: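 Broth microdilution was used throughout. UPEC, P. aeruginosa and S. aureus were tested in CA-MHB buffered with 40 mM HEPES (pH 7.4); UPEC was additionally tested in LPM with 30 mM MES (pH 5.5). S. flexneri was grown in TSB. All determinations were run in triplicate.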

[2] = tested on: non-growing UPEC CFT073; assay: Dilution-regrowth assay (screen, hit validation, dose-response) on stationary-phase UPEC; type: cell-based, Escherichia coli; conditions: for Regrowth, OD600 at 6h or 8h after dilution into drug-free medium: average; for EC50: Escherichia coli, pH 7.4
Summary of the method: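 Regrowth (OD600 after 6 h, 37 °C) of diluted non-growing CFT073, following 24 h compound treatment of 24 h stationary cultures, defines activity relative to untreated control. Screen at 20 µM, validation at 20, 10, 5 µM (duplicates), dose–response in three biological replicates fitted by five-parameter logistic.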

[3] = tested on: non-growing S. aureus DSM2569; assay: Dilution-regrowth assay (OD600, start-growth-time) on stationary-phase S. aureus; type: cell-based, Staphylococcus aureus; conditions: S. aureus; for Regrowth, OD600 at 6h or 8h after dilution into drug-free medium: average; for EC50: Staphylococcus aureus, DSM2569, regrowth delay of non-growing bacteria, 1:4 CA-MHB pH 7.4, 24 h treatment, OD600 8 h after dilution, read-out: EC50
Summary of the method: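 Stationary-phase S. aureus cultures were grown and exposed to compound for 24 h in 1:4 CA-MHB (pH 7.4) at 37 °C in 96-well plates with 200 μl volume. After dilution into drug-free medium, regrowth was tracked in a plate reader at 37 °C with continuous shaking, reading OD600 every 20 min; EC50 came from five-parameter logistic fitting.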

[4] = tested on: non-growing UPEC CFT073; assay: Dose-dependent killing analysis (CFU spot-plating) of stationary-phase UPEC; type: cell-based, Escherichia coli; conditions: E. coli in 1:4 CA-MHB (pH 7.4), individual replicates
Summary of the method: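 Non-growing (stationary-phase) UPEC CFT073 treated with compounds in 96-well format at 200 μl, then 10-fold serially diluted in PBS and 10 μl spots plated on LB agar. Plates incubated overnight at 37 °C; colonies counted at lowest resolvable dilution to give CFU. Three biological replicates.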

[5] = tested on: non-growing P. aeruginosa DSM1117; assay: Dose-dependent killing analysis (CFU spot-plating) of stationary-phase P. aeruginosa; type: cell-based, Pseudomonas aeruginosa; conditions: for log10(CFU/ml) after treatment / killing, average Δlog10(CFU/ml): P. aeruginosa; for log10(CFU/ml) after treatment: individual replicates; for killing, average Δlog10(CFU/ml): vs CFU before treatment
Summary of the method: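 Stationary-phase P. aeruginosa DSM1117 treated for 24 h in 1:4 CA-MHB, pH 7.4, across compound doses. Survivors counted after 10-fold PBS dilution, spot-plating on LB agar and overnight growth at 37 °C; three biological replicates.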

[6] = CA-MHB pH 7.4, read-out: MIC (μM) CA-MHB
[7] = E. coli in 1:4 CA-MHB (pH 7.4), concentration 0.25
[8] = E. coli in 1:4 CA-MHB (pH 7.4), concentration 0.5
[9] = E. coli in 1:4 CA-MHB (pH 7.4), concentration 1
[10] = E. coli in 1:4 CA-MHB (pH 7.4), concentration 2.5
[11] = E. coli in 1:4 CA-MHB (pH 7.4), concentration 5
[12] = E. coli in 1:4 CA-MHB (pH 7.4), concentration 10
[13] = E. coli in 1:4 CA-MHB (pH 7.4), concentration 30
[14] = E. coli in LPM (pH 5.5), concentration 0.25
[15] = E. coli in LPM (pH 5.5), concentration 0.5
[16] = E. coli in LPM (pH 5.5), concentration 1
[17] = E. coli in LPM (pH 5.5), concentration 2.5
[18] = E. coli in LPM (pH 5.5), concentration 5
[19] = E. coli in LPM (pH 5.5), concentration 10
[20] = E. coli in LPM (pH 5.5), concentration 30

Row | Compound | MIC [1, 6] [µM] | Regrowth, OD600 at 6h or 8h after dilution into drug-free medium [2, 7] | Regrowth, OD600 at 6h or 8h after dilution into drug-free medium [2, 8] | Regrowth, OD600 at 6h or 8h after dilution into drug-free medium [2, 9] | Regrowth, OD600 at 6h or 8h after dilution into drug-free medium [2, 10] | Regrowth, OD600 at 6h or 8h after dilution into drug-free medium [2, 11] | Regrowth, OD600 at 6h or 8h after dilution into drug-free medium [2, 12] | Regrowth, OD600 at 6h or 8h after dilution into drug-free medium [2, 13] | Regrowth, OD600 at 6h or 8h after dilution into drug-free medium [2, 14] | Regrowth, OD600 at 6h or 8h after dilution into drug-free medium [2, 15] | Regrowth, OD600 at 6h or 8h after dilution into drug-free medium [2, 16] | Regrowth, OD600 at 6h or 8h after dilution into drug-free medium [2, 17] | Regrowth, OD600 at 6h or 8h after dilution into drug-free medium [2, 18] | Regrowth, OD600 at 6h or 8h after dilution into drug-free medium [2, 19] | Regrowth, OD600 at 6h or 8h after dilution into drug-free medium [2, 20] | Regrowth, OD600 at 6h or 8h after dilution into drug-free medium ([3]; concentration 0.1) | Regrowth, OD600 at 6h or 8h after dilution into drug-free medium ([3]; concentration 0.5) | Regrowth, OD600 at 6h or 8h after dilution into drug-free medium ([3]; concentration 2.5) | Regrowth, OD600 at 6h or 8h after dilution into drug-free medium ([3]; concentration 10) | EC50 [3] [nM] | also measured
1 | N[C@@H]1CCCCN(c2c(F)cc3c(=O)c(C(=O)O)cn(C4CC4)c3c2Cl)C1 [Besifloxacin] | 4 (≈ 1.58 µg/mL) | 0.548 | 0.480 | 0.155 | 0.075 | 0.073 | 0.071 | 0.073 | 0.547 | 0.532 | 0.550 | 0.548 | 0.531 | 0.531 | 0.471 | 0.576 | 0.336 | 0.134 | 0.097 | 401 | increase of MIC in diluted CA-MHB versus CA-MHB [1]: twofold; MIC ([1]; 1:4 diluted CA-MHB pH 7.4, read-out: MIC (μM) 1:4 CA-MHB): 8 µM (≈ 3.15 µg/mL); EC50 [2]: 677 nM; log10(CFU/ml) after treatment ([4]; concentration 0.25): 8.778 log10(CFU/ml) and 8.699 log10(CFU/ml) and 8.477 log10(CFU/ml); log10(CFU/ml) after treatment ([4]; concentration 0.5): 8.491 log10(CFU/ml) and 8.204 log10(CFU/ml) (2×); log10(CFU/ml) after treatment ([4]; concentration 1): 7.568 log10(CFU/ml) and 7.322 log10(CFU/ml) and 7.301 log10(CFU/ml); log10(CFU/ml) after treatment ([4]; concentration 2.5): 6.462 log10(CFU/ml) and 6.204 log10(CFU/ml) and 6.342 log10(CFU/ml); log10(CFU/ml) after treatment ([4]; concentration 5): 6.398 log10(CFU/ml) and 5.342 log10(CFU/ml) and 5.362 log10(CFU/ml); log10(CFU/ml) after treatment ([4]; concentration 10): 6.114 log10(CFU/ml) and 5.230 log10(CFU/ml) and 5.000 log10(CFU/ml); log10(CFU/ml) after treatment ([5]; concentration 0.1): 8.000 log10(CFU/ml) and 8.602 log10(CFU/ml) and 8.204 log10(CFU/ml); killing, average Δlog10(CFU/ml) ([5]; concentration 0.1): 0.619 log10(CFU/ml); log10(CFU/ml) after treatment ([5]; concentration 0.5): 7.845 log10(CFU/ml) and 7.699 log10(CFU/ml) (2×); killing, average Δlog10(CFU/ml) ([5]; concentration 0.5): 1.140 log10(CFU/ml); log10(CFU/ml) after treatment ([5]; concentration 2.5): 5.000 log10(CFU/ml) (2×) and 4.699 log10(CFU/ml); killing, average Δlog10(CFU/ml) ([5]; concentration 2.5): 3.988 log10(CFU/ml); log10(CFU/ml) after treatment ([5]; concentration 10): =<4 log10(CFU/ml) (2×) and 4.301 log10(CFU/ml); killing, average Δlog10(CFU/ml) ([5]; concentration 10): 4.787 log10(CFU/ml); reduction of bacterial counts, non-growing P. aeruginosa ([5]; at 2.5 µM, 1:4 CA-MHB pH 7.4, 24 h treatment): more than four
2 | COc1c(N2C[C@@H]3CCCN[C@@H]3C2)c(F)cc2c(=O)c(C(=O)O)cn(C3CC3)c12 [Moxifloxacin] | 8 (≈ 3.21 µg/mL) | 0.565 | 0.481 | 0.120 | 0.067 | 0.066 | 0.068 | 0.065 | 0.577 | 0.563 | 0.570 | 0.577 | 0.574 | 0.567 | 0.530 | 0.607 | 0.484 | 0.330 | 0.150 | 4820 | EC50 ([2]; E. coli, regrowth delay of non-growing bacteria, 1:4 CA-MHB, 24 h treatment, OD600 6 h after 2500-fold dilution, read-out: EC50): 649 nM; log10(CFU/ml) after treatment ([4]; concentration 0.25): 8.602 log10(CFU/ml) and 8.380 log10(CFU/ml) and 8.255 log10(CFU/ml); log10(CFU/ml) after treatment ([4]; concentration 0.5): 8.041 log10(CFU/ml) and 7.903 log10(CFU/ml) and 7.699 log10(CFU/ml); log10(CFU/ml) after treatment ([4]; concentration 1): 7.415 log10(CFU/ml) and 6.845 log10(CFU/ml) and 6.903 log10(CFU/ml); log10(CFU/ml) after treatment ([4]; concentration 2.5): 5.954 log10(CFU/ml) and 5.230 log10(CFU/ml) and 5.380 log10(CFU/ml); log10(CFU/ml) after treatment ([4]; concentration 5): 5.602 log10(CFU/ml) and 5.204 log10(CFU/ml) and 5.146 log10(CFU/ml); log10(CFU/ml) after treatment ([4]; concentration 10): 6.114 log10(CFU/ml) and 4.903 log10(CFU/ml) and 5.000 log10(CFU/ml); log10(CFU/ml) after treatment ([5]; concentration 0.1): 8.699 log10(CFU/ml) and 8.778 log10(CFU/ml) and 8.477 log10(CFU/ml); killing, average Δlog10(CFU/ml) ([5]; concentration 0.1): 0.236 log10(CFU/ml); log10(CFU/ml) after treatment ([5]; concentration 0.5): 8.301 log10(CFU/ml) and 7.778 log10(CFU/ml) (2×); killing, average Δlog10(CFU/ml) ([5]; concentration 0.5): 0.935 log10(CFU/ml); log10(CFU/ml) after treatment ([5]; concentration 2.5): 5.845 log10(CFU/ml) and 6.301 log10(CFU/ml) and 4.699 log10(CFU/ml); killing, average Δlog10(CFU/ml) ([5]; concentration 2.5): 3.272 log10(CFU/ml); log10(CFU/ml) after treatment ([5]; concentration 10): =<4 log10(CFU/ml) (2×) and 4.477 log10(CFU/ml); killing, average Δlog10(CFU/ml) ([5]; concentration 10): 4.728 log10(CFU/ml)
